Here are results for eight compounds from paper PMC6114082, “Synthesis of aminophenylhydroxamate and aminobenzylhydroxamate derivatives and in vitro screening for antiparasitic and histone deacetylase inhibitory activity” (International Journal for Parasitology: Drugs and Drug …, 2018).

Data set [1] deals with L. tropica MHOM/BR/73/5-ASKM. Briefly: Antileishmanial activity, L. tropica promastigotes. Type of data set: cell-based, Leishmania tropica. Here is the method: (§1) The antitrypanosomatid activity of the compounds was ascertained as follows. Leishmania parasites were cultured at 26 °C in SDM-79 medium supplemented with 10% fetal calf serum (FCS), and the antileishmanial activity was determined according to a previously published protocol for LUC-expressing and wild-type Leishmania ([Sereno et al., 2001], [Abbassi et al., 2008]). Trypanosoma brucei gambiense were grown at 26 °C in Cunningham's medium supplemented with 10% FCS, 2 mM GlutaMAX-1 (Gibco, USA), 100 U/ml penicillin, 100 μg/ml streptomycin and […] bovine hemin. The epimastigote form of Trypanosoma cruzi (strain Y cl7 scl2, lineage Tc2) (kindly provided by Philippe Truc and Christian Barnabé, UMR 177 IRD-CIRAD InterTryp, Montpellier, France) were grown at 26 °C in liver infusion tryptose (LIT) medium, supplemented with 10% FCS, 2 mM GlutaMAX™-I, 100 U/ml penicillin, 100 μg/ml streptomycin and bovine hemin (20 mg/l) (Gibco). The antitrypanosomatids activity was determined using a protocol that was initialy set up for wild-type Leishmania ([Abbassi et al., 2008]). To assess the drug activity on Toxoplasma gondii, confluent human foreskin fibroblast (HFF) monolayers were infected with YFP-type I Rh kindly provided by B. Striepen, see ([Striepen et al., 1998]) or Tomato-type II Pru kindly provided by N. Blanchard (Toulouse), expressing parasites at 5 × 10^4 per well, which were then centrifuged for 30 s at 1300 rpm and incubated for 30 min in a water bath at 37 °C to allow invasion. The wells were then washed three times with PBS to eliminate extracellular parasites, and the drugs were added at various concentrations ranging from 1 to 50 μM. After incubation for 24 h at 37 °C in a humidified atmosphere containing 5% CO2, the cells were fixed in 2.5% methanol-free formaldehyde (Tebu-bio)/PBS for 30 min at room temperature. Nuclei were stained with Hoechst 33258 (2 μg/ml, Molecular Probes) for 20 min and then washed three times with water for 10 min each time. The number of infected cells, i.e., cells harboring a parasitophorous vacuole, and the number of parasites per vacuole were determined using an Olympus ScanR microscope ( × 20 objective) and ScanR software. The parasitic index in % compared to the control was calculated as follows: (PI=((number of parasite/100 cells in treated wells) x (% of infected macrophage in treated well)/(number of parasite/100 cells in untreated wells) x (% of infected macrophage in untreated wells))*100).

Data set [2] deals with L. braziliensis MHOM/BR/75/M209. In words: Antileishmanial activity, L. braziliensis promastigotes (luciferase expressing strain). Type of data set: cell-based, Leishmania braziliensis. Here is the method:
as §1

Data set [3] relates to L. infantum MHOM/MA/67/ITMAP-264. Briefly: Antileishmanial activity, L. infantum promastigotes (luciferase expressing strain). It counts as cell-based, Leishmania infantum. To be noted: for IC50: promastigotes, luciferase expressing strain; for IS^b selectivity index for L. infantum: IC50 THP-1 / IC50 Leishmania infantum (footnote). Here is the method:
as §1

The test system of data set [4] is T. brucei MHOM/CI/81/DAL967. Briefly: Antitrypanosomal activity, T. brucei. Type of data set: cell-based, Trypanosoma brucei gambiense. Here is the method: as §1
For data set [5], the system named is T. gondi RH-YFP. In words: Anti-Toxoplasma activity in infected HFF monolayers, type I RH-YFP (parasitic index). It counts as cell-based, Toxoplasma gondii. The settings on record: for IC50: type I strain, in HFF, 24 h, read-out: T. gondi RH-YFP IC50; for IS^a selectivity index for T. gondi: IC50 HFF / IC50 T. gondi RH-YFP.
The next data set has as its system HFF cells. In words: Cytotoxicity, MTT assay, HFF. Type of data set: cell-based, human. Here is the method: (§2) The human monocytic cell line THP-1 was cultivated in RPMI medium supplemented with 10% FCS, 2 mM GlutaMAX, 100 U/ml penicillin, and 100 μg/ml streptomycin. HFF cells were cultivated in Dulbecco's modified Eagle's medium (DMEM) with Earle's salts containing 10% FCS, 10 mM HEPES, 1 mM sodium pyruvate, 2 mM GlutaMAX, 100 U/ml penicillin, and 100 μg/ml streptomycin. The THP-1 and HFF cells were maintained in a 5% CO2 incubator at 37 °C. Cytotoxicity was evaluated via the MTT assay, and the IC50 values were calculated using Prism software (Prism 4 for Mac OS X, version 5.0b, December, 2008).
(In general: Tetrazolium assays rely on reduction of a dye to a coloured formazan, in cell work by metabolically active cells.)

The test system of a further data set is THP-1 cells. In words: Cytotoxicity, MTT assay, THP-1. Type of data set: cell-based, human. To be noted: MTT assay. Here is the method: as §2
Data set [6] has as its system HeLa nuclear extract (HDAC 1, 2, 6, and 8 predominant). Briefly: Fluorometric HDAC assay, HeLa nuclear extract. The settings on record: HeLa nuclear extract; read-out: HDACi HeLa IC50. Type of data set: biochemical. Here is the method: The HDACi effect against HeLa nuclear extracts and recombinant proteins were measured using a fluorometric HDAC assay kit (Active Motif, Belgium) according to the manufacturer's instructions. […] A negative control containing trichostatin A at a final concentration of 2 μM was analyzed for each independent experiment.

A short description of data set [7]: Cytotoxicity, MTT assay, HFF. It counts as cell-based, human. The settings on record: human, HFF cells. Here is the method: as §2
Data set [8] can be described thus: Cytotoxicity, MTT assay, THP-1. It counts as cell-based, human. The settings on record: human, THP-1 cells (monocytic cell line); MTT assay. Here is the method: as §2
The next data set has as its system Leishmania. In words: Antileishmanial activity, Leishmania species summarised in text. Type of data set: cell-based, Leishmania spp. The settings on record: abstract sentence also covers antitrypanosomal activity, read-out: antileishmanial activity IC50, summarised over species. Here is the method: The antitrypanosomatid activity of the compounds was ascertained as follows. Leishmania parasites were cultured at 26 °C in SDM-79 medium supplemented with 10% fetal calf serum (FCS), and the antileishmanial activity was determined according to a previously published protocol for LUC-expressing and wild-type Leishmania ([Sereno et al., 2001], [Abbassi et al., 2008]). Trypanosoma brucei gambiense were grown at 26 °C in Cunningham's medium supplemented with 10% FCS, 2 mM GlutaMAX-1 (Gibco, USA), 100 U/ml penicillin, 100 μg/ml streptomycin and 20 mg/ml bovine hemin. […] The antitrypanosomatids activity was determined using a protocol that was initialy set up for wild-type Leishmania ([Abbassi et al., 2008]). […] The number of infected cells, i.e., cells harboring a parasitophorous vacuole, and the number of parasites per vacuole were determined using an Olympus ScanR microscope ( × 20 objective) and ScanR software. The parasitic index in % compared to the control was calculated as follows: (PI=((number of parasite/100 cells in treated wells) x (% of infected macrophage in treated well)/(number of parasite/100 cells in untreated wells) x (% of infected macrophage in untreated wells))*100).

Data set [9] has as its system T. gondi RH-YFP. Details: method as in Butler et al., 2013. The settings on record: ref Butler et al., 2013; read-out: anti-Toxoplasma IC50, literature; cited from earlier work.

Where two headings read alike, the source gives them in different places.

In general, IC50 refers to the concentration at which inhibition is half-maximal. Take `Cc1nc(-c2ccc(C(=O)Nc3ccc(C(=O)NO)cc3)cc2)cs1` [Compound 361]: the IC50 was > 60 µM in data set [1]; > 60 µM in data set [2]; > 60 µM in [3]; > 60 µM in [4]; > 50 µM with T. gondi RH-YFP [5]; 25 ± 4 µM in the data set on HFF cells. The results for the IC50 (with THP-1 cells; in [6]) were > 400 µM and > 1.8 µM, respectively.

Consider `O=C(NO)c1ccc(NC(=O)c2cccc(F)c2)cc1` [Compound 349, 4-(3-fluorobenzamido)-N-hydroxybenzamide], for which the IC50 in data set [1] (Leishmania tropica) was > 60 µM; in data set [2] (Leishmania braziliensis), > 60 µM; in data set [3] (Leishmania infantum) it was > 60 µM; in data set [4] (Trypanosoma brucei), > 60 µM; with T. gondi RH-YFP [5] (Toxoplasma gondii), > 50 µM; in data set [7] it was > 400 µM. In addition, the IC50 was determined as 264 ± 8 µM in [8] and 0.633 ± 0.041 µM in data set [6].

For the compound `COc1cccc(CC(=O)NCc2ccc(C(=O)NO)cc2)c1` [Compound 362, N-hydroxy-4-{[2-(3-methoxyphenyl)acetamido]methyl}benzamide], the half-maximal inhibitory concentration (IC50) in [1] (Leishmania tropica) was > 60 µM; in data set [2] (Leishmania braziliensis) it was > 60 µM; in [3] (Leishmania infantum) it was > 60 µM; in data set [4] (Trypanosoma brucei), > 60 µM; with T. gondi RH-YFP [5] (Toxoplasma gondii), > 50 µM; in data set [7] it was > 400 µM. For the same compound, the IC50 in data set [8] came to 30.5 ± 3 µM; in data set [6], 0.518 ± 0.146 µM. Also, the “IS^b selectivity index for L. infantum” value in data set [3] is <1. The “IS^a selectivity index for T. gondi” value in the data set on T. gondi RH-YFP [5] is listed as >7.6.

Take `O=C(NO)c1ccc(CNS(=O)(=O)c2cccc(F)c2)cc1` [Compound 350, 4-(3-fluorobenzenesulfonamidomethyl)-N-hydroxybenzamide]: the 50% inhibitory concentration (IC50) was > 60 µM in data set [1] (Leishmania tropica); > 60 µM in data set [2] (Leishmania braziliensis); > 60 µM in [3] (Leishmania infantum); > 60 µM in [4] (Trypanosoma brucei); < 50 µM with T. gondi RH-YFP [5] (Toxoplasma gondii); 300 ± 50 µM in [7]. Further, the IC50 in data set [8] is > 400 µM. Besides, the “IS^a selectivity index for T. gondi” value in the data set with T. gondi RH-YFP [5] amounted to 7.5.

As to `O=C(NO)c1ccc(CNC(=O)c2cccc(F)c2)cc1` [Compound 345, 4-{[(3-fluorophenyl)formamido]methyl}-N-hydroxybenzamide], the IC50 in data set [1] (Leishmania tropica) is 35.3 ± 12.2 µM; in data set [2] (Leishmania braziliensis) it was 23.5 ± 1.5 µM; in data set [3] (Leishmania infantum), 27.2 ± 2.5 µM; in data set [4] (Trypanosoma brucei), > 60 µM; in data set [7] it was 58.3 ± 1.2 µM; in data set [6], 0.866 ± 0.4 µM. In addition, the IC50 in the data set with Leishmania was 15 to 50 µM. Also, in data set [3], the “IS^b selectivity index for L. infantum” value was determined as 0.3. The “IS^a selectivity index for T. gondi” value in the data set on T. gondi RH-YFP [5] is 11.6.

Regarding `Cc1nc(-c2ccc(C(=O)NCc3ccc(C(=O)NO)cc3)cc2)cs1` [Compound 360], the IC50 is 55 ± 15 µM in data set [1]; > 60 µM in [2]; > 60 µM in data set [3]; > 60 µM in data set [4]; 22.6 ± 9.5 µM with HFF cells; 2.2 ± 0.5 µM in the data set with THP-1 cells. Besides, the half-maximal inhibitory concentration (IC50) in data set [6] was 0.399 ± 0.137 µM.

On to `CCc1nc(N)nc(N)c1-c1ccc(Cl)cc1` [pyrimethamine], for which the IC50 in the data set with T. gondi RH-YFP [9] is 0.4 µM.

`O=C(NO)c1ccc(NS(=O)(=O)c2cccc(F)c2)cc1` [Compound 351, 4-(3-fluorobenzenesulfonamido)-N-hydroxybenzamide]: the IC50 in data set [1] (Leishmania tropica) is > 60 µM; in [2] (Leishmania braziliensis), > 60 µM; in data set [3] (Leishmania infantum), > 60 µM; in data set [4] (Trypanosoma brucei) it was > 60 µM; in the data set with T. gondi RH-YFP [5] (Toxoplasma gondii), > 50 µM; in data set [7], 116 ± 3 µM. Besides, the half-maximal inhibitory concentration (IC50) in data set [8] was determined as 33.5 ± 15 µM; in data set [6], 0.881 ± 0.083 µM. For the same compound, the “IS^b selectivity index for L. infantum” value in data set [3] is <1.
